Measurements taken from ChEMBL document CHEMBL4043175, “Tetrahydrobenzothiophene carboxamides: Beyond the kinase domain and into the fatty acid realm” (Bioorg Med Chem Lett, 2017).
Activity calls are given as the source filed them. No cut-off for these calls is given here.

Columns and labels:
[1] = target: T1, Stearoyl-CoA desaturase (Homo sapiens) (UniProt O00767); experiment: Inhibition of SCD1 in human HepG2 cells assessed as decrease in cellular elongase index at 10 uM after 72 hrs by gas chromatographic analysis; format: cell-based
T1 sequence (whole entry): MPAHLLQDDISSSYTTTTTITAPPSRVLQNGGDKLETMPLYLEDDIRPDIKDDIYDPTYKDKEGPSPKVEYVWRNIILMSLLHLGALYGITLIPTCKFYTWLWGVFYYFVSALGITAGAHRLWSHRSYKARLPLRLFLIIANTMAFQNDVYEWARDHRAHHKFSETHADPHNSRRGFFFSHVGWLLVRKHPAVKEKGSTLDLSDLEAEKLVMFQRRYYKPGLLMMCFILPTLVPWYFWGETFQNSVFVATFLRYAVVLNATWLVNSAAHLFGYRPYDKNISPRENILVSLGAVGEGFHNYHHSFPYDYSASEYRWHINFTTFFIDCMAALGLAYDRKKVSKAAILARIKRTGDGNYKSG

[2] = target: T1, Stearoyl-CoA desaturase (Homo sapiens); experiment: Inhibition of SCD1 in human HepG2 cells assessed as increase in cellular elongase index at 10 uM after 72 hrs by gas chromatographic analysis; format: cell-based
[3] = target: T1, Stearoyl-CoA desaturase (Homo sapiens); experiment: Inhibition of SCD1 in human HepG2 cells assessed as decrease in 18:1/18:0 desaturase index at 1 uM after 72 hrs by gas chromatographic analysis; format: cell-based
[4] = target: T1, Stearoyl-CoA desaturase (Homo sapiens); experiment: Inhibition of SCD1 in human HepG2 cells assessed as decrease in 16:1/16:0 desaturase index at 1 uM after 72 hrs by gas chromatographic analysis; format: cell-based
[5] = target: T1, Stearoyl-CoA desaturase (Homo sapiens); experiment: Inhibition of SCD1 in human HepG2 cells assessed as decrease in cellular lipid accumulation at 10 uM after 48 hrs by Oil Red O staining-based assay; format: cell-based
[6] = target: Macrophage colony-stimulating factor 1 receptor (Homo sapiens) (UniProt P07333); experiment: Inhibition of recombinant human N-terminal GST-tagged FMS cytoplasmic domain (538 to 972 residues) expressed in baculovirus expression system at 10 uM by TR-FRET assay relative to control
Macrophage colony-stimulating factor 1 receptor (Homo sapiens), sequence (P07333 whole entry, the tested form may be a part): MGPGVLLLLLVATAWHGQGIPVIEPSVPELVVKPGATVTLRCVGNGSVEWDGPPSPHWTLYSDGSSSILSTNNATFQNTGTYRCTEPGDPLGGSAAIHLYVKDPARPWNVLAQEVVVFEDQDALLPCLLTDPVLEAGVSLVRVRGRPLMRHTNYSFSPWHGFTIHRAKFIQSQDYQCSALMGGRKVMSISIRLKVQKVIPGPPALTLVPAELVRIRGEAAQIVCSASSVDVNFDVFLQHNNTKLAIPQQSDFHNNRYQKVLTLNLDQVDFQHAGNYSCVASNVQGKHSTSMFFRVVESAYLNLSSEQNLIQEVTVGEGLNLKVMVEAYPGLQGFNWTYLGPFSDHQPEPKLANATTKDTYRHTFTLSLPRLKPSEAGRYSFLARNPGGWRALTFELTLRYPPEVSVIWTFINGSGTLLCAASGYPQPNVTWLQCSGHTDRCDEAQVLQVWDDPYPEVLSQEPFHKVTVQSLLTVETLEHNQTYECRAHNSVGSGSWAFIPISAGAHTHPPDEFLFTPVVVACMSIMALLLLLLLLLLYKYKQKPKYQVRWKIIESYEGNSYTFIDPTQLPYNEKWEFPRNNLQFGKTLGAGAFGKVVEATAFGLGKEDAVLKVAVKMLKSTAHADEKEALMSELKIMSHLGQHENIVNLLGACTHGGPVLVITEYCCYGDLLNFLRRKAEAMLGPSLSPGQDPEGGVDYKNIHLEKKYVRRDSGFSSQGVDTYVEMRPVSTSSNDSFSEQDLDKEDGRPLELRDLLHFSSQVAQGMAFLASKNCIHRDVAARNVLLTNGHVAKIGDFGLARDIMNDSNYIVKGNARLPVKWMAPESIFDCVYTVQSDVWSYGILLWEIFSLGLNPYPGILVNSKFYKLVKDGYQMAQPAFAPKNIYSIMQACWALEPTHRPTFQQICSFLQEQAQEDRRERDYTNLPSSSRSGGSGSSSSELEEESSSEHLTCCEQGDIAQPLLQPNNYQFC

[7] = target: T1, Stearoyl-CoA desaturase (Homo sapiens); experiment: Inhibition of SCD1 in human HepG2 cells assessed as increase in cellular elongase index at 1 uM after 72 hrs by gas chromatographic analysis; format: cell-based
[8] = target: Tyrosine-protein kinase JAK2 (Homo sapiens) (UniProt O60674); experiment: Inhibition of recombinant human N-terminal His-tagged JAK2 catalytic domain (826 to 1132 residues) expressed in baculovirus expression system at 10 uM by TR-FRET assay relative to control
Tyrosine-protein kinase JAK2 (Homo sapiens), sequence (O60674 whole entry, the tested form may be a part): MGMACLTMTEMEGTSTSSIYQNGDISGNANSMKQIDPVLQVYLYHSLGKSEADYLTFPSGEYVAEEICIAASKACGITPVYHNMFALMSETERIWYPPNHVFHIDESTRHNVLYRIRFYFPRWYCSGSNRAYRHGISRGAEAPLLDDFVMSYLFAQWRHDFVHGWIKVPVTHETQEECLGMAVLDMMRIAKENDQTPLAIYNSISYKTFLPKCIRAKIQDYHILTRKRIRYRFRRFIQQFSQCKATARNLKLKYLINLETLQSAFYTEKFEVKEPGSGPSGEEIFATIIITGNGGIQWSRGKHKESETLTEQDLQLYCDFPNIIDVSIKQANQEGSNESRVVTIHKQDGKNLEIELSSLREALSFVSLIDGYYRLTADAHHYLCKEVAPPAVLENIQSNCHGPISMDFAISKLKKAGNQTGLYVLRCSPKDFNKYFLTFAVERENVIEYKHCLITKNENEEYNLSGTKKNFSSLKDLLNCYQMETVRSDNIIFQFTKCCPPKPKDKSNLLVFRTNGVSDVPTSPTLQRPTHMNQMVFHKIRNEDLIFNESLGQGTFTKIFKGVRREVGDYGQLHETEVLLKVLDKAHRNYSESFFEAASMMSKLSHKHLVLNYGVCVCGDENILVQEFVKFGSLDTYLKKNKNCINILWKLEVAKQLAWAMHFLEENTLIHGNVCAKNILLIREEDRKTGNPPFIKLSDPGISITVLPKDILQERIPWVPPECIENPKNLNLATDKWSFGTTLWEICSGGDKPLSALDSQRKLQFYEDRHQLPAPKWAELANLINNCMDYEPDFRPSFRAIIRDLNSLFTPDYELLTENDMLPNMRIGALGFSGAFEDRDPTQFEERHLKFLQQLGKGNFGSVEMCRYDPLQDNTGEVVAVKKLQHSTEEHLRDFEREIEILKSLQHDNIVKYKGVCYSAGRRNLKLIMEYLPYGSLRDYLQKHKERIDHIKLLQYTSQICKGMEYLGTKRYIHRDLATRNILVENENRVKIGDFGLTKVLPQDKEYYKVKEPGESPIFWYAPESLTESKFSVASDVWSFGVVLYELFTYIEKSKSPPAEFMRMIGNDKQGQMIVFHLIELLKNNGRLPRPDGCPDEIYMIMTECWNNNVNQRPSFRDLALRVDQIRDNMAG

[9] = target: T1, Stearoyl-CoA desaturase (Homo sapiens); experiment: Inhibition of SCD1 in human HepG2 cells assessed as decrease in 16:1/16:0 desaturase index at 10 uM after 72 hrs by gas chromatographic analysis; format: cell-based
[10] = target: T1, Stearoyl-CoA desaturase (Homo sapiens); experiment: Inhibition of SCD1 in human HepG2 cells assessed as decrease in 18:1/18:0 desaturase index AT 10 uM after 72 hrs by gas chromatographic analysis; format: cell-based
[11] = target: Receptor-type tyrosine-protein kinase FLT3 (Homo sapiens) (UniProt P36888); experiment: Inhibition of recombinant human N-terminal GST-tagged FLT3 cytoplasmic domain (564 to 993 residues) expressed in baculovirus expression system at 10 uM by TR-FRET assay relative to control
Receptor-type tyrosine-protein kinase FLT3 (Homo sapiens), sequence (P36888 whole entry, the tested form may be a part): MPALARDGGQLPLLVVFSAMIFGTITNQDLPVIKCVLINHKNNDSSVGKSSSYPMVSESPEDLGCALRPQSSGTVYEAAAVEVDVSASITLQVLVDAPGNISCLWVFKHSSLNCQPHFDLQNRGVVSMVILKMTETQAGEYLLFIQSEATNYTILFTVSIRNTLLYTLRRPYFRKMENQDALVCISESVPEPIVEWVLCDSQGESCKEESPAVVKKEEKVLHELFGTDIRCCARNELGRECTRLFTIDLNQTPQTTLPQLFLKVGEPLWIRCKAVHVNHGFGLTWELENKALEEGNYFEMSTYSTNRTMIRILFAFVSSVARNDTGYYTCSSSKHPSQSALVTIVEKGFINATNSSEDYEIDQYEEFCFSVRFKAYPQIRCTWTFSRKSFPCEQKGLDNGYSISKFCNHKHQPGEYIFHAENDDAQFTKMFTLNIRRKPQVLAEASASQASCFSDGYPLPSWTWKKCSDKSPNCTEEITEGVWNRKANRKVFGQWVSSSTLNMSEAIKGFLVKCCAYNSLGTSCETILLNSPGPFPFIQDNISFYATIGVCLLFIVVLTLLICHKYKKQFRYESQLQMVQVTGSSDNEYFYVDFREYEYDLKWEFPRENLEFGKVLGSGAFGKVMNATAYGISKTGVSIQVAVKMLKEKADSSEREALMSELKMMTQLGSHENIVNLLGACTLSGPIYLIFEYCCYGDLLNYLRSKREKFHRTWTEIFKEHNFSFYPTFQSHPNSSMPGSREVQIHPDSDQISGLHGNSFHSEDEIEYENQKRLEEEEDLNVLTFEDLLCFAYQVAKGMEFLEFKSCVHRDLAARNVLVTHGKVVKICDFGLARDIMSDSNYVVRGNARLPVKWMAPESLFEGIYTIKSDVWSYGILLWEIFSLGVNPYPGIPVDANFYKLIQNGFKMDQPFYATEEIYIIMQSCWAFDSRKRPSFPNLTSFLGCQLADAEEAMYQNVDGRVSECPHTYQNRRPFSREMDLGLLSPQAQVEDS

[12] = target: T1, Stearoyl-CoA desaturase (Homo sapiens); experiment: Inhibition of SCD1 in human HepG2 cells assessed as decrease in 18:1/18:0 desaturase index after 72 hrs by gas chromatographic analysis; format: cell-based
[13] = target: T1, Stearoyl-CoA desaturase (Homo sapiens); experiment: Inhibition of SCD1 in human HepG2 cells assessed as decrease in 16:1/16:0 desaturase index after 72 hrs by gas chromatographic analysis; format: cell-based
[14] = target: Tyrosine-protein kinase ABL1 (Homo sapiens) (UniProt P00519); experiment: Inhibition of full-length recombinant human N-terminal His-tagged ABL expressed in baculovirus expression system at 10 uM by TR-FRET assay relative to control
Tyrosine-protein kinase ABL1 (Homo sapiens), sequence (P00519 whole entry): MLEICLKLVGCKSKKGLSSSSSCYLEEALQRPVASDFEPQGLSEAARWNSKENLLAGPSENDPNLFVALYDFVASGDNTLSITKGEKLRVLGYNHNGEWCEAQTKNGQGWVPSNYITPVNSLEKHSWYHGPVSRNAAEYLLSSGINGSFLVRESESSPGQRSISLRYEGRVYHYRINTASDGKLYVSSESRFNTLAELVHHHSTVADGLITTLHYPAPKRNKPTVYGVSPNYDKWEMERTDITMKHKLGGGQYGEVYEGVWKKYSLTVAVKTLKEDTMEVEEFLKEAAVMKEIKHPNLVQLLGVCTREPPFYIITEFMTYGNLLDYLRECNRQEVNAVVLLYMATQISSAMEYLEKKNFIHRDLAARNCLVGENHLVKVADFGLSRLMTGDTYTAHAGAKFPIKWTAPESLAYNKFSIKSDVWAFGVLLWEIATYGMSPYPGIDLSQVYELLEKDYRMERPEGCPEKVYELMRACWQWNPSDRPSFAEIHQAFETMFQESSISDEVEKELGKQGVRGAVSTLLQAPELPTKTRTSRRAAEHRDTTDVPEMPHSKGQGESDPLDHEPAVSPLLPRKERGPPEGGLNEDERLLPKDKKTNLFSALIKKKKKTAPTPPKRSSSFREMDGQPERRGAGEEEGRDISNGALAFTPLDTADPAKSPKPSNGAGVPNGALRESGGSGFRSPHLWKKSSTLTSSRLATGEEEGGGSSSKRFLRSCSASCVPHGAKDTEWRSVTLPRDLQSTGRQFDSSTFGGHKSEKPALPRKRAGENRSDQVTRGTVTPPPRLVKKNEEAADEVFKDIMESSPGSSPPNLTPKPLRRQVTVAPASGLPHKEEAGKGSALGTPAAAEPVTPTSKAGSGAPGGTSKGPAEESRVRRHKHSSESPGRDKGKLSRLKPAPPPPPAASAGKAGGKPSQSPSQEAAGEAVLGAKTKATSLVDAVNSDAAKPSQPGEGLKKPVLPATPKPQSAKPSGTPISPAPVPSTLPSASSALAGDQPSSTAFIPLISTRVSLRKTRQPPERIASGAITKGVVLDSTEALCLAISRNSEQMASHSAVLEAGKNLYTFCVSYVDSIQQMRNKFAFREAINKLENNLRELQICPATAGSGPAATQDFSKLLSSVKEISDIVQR

[15] = target: T1, Stearoyl-CoA desaturase (Homo sapiens); experiment: Inhibition of SCD1 in human HepG2 cells assessed as decrease in cellular lipid accumulation at 1 uM after 48 hrs by Oil Red O staining-based assay; format: cell-based
[16] = target: T1, Stearoyl-CoA desaturase (Homo sapiens); experiment: Inhibition of SCD1 in human HepG2 cells assessed as increase in cellular elongase index after 72 hrs by gas chromatographic analysis; format: cell-based

Row | inhibition [1] | inhibition [2] | inhibition [9] | inhibition [10] | inhibition [12] | inhibition [13] | other results | SMILES
1 | Active |  |  |  |  |  |  | NC(=O)c1c(N)sc2c1CCC(CO)C2 (stereo not given)
2 |  | inactive |  |  |  |  |  | NC(=O)c1c(NC(=O)c2ccc(CN3CCOCC3)cc2)sc2c1CCC(C(=O)O)C2 (stereo not given)
3 | Active |  |  |  |  |  |  | CCOC(=O)C1CCc2c(sc(NC(=O)c3ccc(CN4CCOCC4)cc3)c2C(N)=O)C1 (stereo not given)
4 |  | Active | Active | Active | Dose-dependent effect | Dose-dependent effect | inhibition [3]: Active; inhibition [4]: Active; inhibition [5]: Active; inhibition [6]: > 80%; inhibition [7]: Active; inhibition [8]: 45%; inhibition [11]: > 80%; inhibition [14]: > 80% | NC(=O)c1c(NC(=O)c2ccc(CN3CCOCC3)cc2)sc2c1CCC(CO)C2 (stereo not given)
5 |  | Active | Active | Active | Dose-dependent effect | Dose-dependent effect |  | O=c1[nH]c(-c2ccc(CN3CCOCC3)cc2)nc2sc3c(c12)CCC(CO)C3 (stereo not given)
6 | Active |  |  |  |  |  |  | NC(=O)c1c(NC(=O)c2ccc(CN3CCOCC3)cc2)sc2c1CCCC2
7 | Active |  |  |  |  |  |  | O=c1[nH]c(-c2ccc(CN3CCCCC3)cc2)nc2sc3c(c12)CCC(CO)C3 (stereo not given)
8 |  | Active | Active | Active | Dose-dependent effect | Dose-dependent effect |  | NC(=O)c1c(NC(=O)c2ccc(CN3CCCCC3)cc2)sc2c1CCC(CO)C2 (stereo not given)
9 |  | Active | Active | Active | Dose-dependent effect | Dose-dependent effect |  | CN(C)Cc1ccc(C(=O)Nc2sc3c(c2C(N)=O)CCC(CO)C3)cc1 (stereo not given)
10 |  | inactive |  |  |  |  |  | NC(=O)c1c(NC(=O)c2ccc(CN3CCOCC3)cc2)sc2c1CCC(c1ccc(O)cc1)C2 (stereo not given)
11 | Active |  |  |  |  |  | inhibition [5]: inactive | CN(C)Cc1ccc(-c2nc3sc4c(c3c(=O)[nH]2)CCC(CO)C4)cc1 (stereo not given)
12 |  | Active | Active | Active | Dose-dependent effect | Dose-dependent effect | inhibition [15]: Active; inhibition [16]: Dose-dependent effect | Cc1nnc(-c2ccc(N3CCC(Oc4cc(F)ccc4Cl)CC3)nn2)o1
13 | Active |  |  |  |  |  |  | NC(=O)c1c(NC(=O)c2ccc(CN3CCOCC3)cc2)sc2c1CCCC2CCO (stereo not given)
14 |  | Active | Active | Active | Dose-dependent effect | Dose-dependent effect |  | NC(=O)c1c(NC(=O)c2ccc(CN3CCS(=O)(=O)CC3)cc2)sc2c1CCC(CO)C2 (stereo not given)
15 | Active |  |  |  |  |  |  | O=c1[nH]c(-c2ccc(CN3CCS(=O)(=O)CC3)cc2)nc2sc3c(c12)CCC(CO)C3 (stereo not given)
